Measured values published in BindingDB's records for doi:10.1073/pnas.83.22.8784 (The Oregon Health Sciences University, 1986).
pKi: −log10 of the molar value.

Columns and labels:
[1] = target: T1, Alpha-2C adrenergic receptor (Rattus norvegicus, UniProt P22086)
T1 sequence (P22086 whole entry): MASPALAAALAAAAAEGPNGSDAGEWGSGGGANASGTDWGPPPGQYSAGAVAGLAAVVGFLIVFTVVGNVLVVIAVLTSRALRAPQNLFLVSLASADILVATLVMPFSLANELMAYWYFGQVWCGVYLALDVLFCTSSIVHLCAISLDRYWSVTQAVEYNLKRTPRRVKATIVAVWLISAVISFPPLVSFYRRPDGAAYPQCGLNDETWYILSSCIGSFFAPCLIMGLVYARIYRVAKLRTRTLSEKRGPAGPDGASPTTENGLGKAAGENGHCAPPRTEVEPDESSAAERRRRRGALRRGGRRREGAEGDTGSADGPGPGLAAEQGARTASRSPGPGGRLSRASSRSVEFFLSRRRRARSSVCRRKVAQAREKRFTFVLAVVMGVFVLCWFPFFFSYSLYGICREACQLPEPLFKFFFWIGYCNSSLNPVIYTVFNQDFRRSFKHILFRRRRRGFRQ

[2] = target: T2, Alpha-1A adrenergic receptor (Rattus norvegicus, UniProt P43140)
T2 sequence (P43140 whole entry): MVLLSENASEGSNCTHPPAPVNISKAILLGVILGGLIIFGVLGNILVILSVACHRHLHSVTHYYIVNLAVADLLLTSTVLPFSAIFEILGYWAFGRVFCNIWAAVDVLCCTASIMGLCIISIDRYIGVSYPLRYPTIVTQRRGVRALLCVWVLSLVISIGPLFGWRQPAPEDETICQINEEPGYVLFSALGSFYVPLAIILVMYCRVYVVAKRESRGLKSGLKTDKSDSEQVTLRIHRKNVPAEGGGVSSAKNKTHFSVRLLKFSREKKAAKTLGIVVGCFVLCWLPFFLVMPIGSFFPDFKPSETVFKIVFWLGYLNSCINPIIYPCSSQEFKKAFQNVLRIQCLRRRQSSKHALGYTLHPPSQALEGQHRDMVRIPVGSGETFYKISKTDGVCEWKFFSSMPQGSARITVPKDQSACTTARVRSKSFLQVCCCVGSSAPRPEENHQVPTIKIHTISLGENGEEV

[3] = target: 5-hydroxytryptamine receptor 2A (Rattus norvegicus, UniProt P14842)
5-hydroxytryptamine receptor 2A, sequence (P14842 whole entry): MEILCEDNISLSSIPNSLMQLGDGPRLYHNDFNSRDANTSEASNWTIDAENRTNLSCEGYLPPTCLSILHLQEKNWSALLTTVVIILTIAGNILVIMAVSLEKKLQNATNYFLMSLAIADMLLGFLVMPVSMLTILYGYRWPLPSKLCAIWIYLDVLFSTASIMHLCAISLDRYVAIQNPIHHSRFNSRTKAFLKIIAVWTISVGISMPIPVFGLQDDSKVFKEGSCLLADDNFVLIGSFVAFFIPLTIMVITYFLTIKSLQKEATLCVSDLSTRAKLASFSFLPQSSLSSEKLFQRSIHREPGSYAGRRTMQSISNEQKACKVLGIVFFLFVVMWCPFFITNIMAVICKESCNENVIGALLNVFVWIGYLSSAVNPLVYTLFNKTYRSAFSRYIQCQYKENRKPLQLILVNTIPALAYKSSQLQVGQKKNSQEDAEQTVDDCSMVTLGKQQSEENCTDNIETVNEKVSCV

Row | SMILES | pKi [1] | pKi [2] | pKi [3]
1 | Cc1nc2sccn2c(=O)c1CCN1CCC(=C(c2ccc(F)cc2)c2ccc(F)cc2)CC1 | 6.20 | 6.72 | 
2 | O=C(c1ccc(F)cc1)C1CCN(CCn2c(=O)[nH]c3ccccc3c2=O)CC1 [3-(2-{4-[(4-fluorophenyl)carbonyl]piperidin-1-yl}ethyl)-1,2,3,4-tetrahydroquinazoline-2,4-dione] | 6.53 | 7.14 | 
3 | O=C(c1ccc(F)cc1)C1CCN(CCCCn2c(=O)[nH]c3ccccc3c2=O)CC1 [CAS_87051-46-5] | 7.12 | 8.73 | 
4 | NC(N)=NN=Cc1c(Cl)cccc1Cl [Guanabenz] | < 5.00 |  | 6.70
5 | Cn1c(=O)c2c(ncn2CCN2CCC(C(=O)c3ccc(F)cc3)CC2)n(C)c1=O [NSC_71255] | 6.38 | 6.92 | 8.35
6 | Cc1nc2ccccn2c(=O)c1CCN1CCC(=C(c2ccc(F)cc2)c2ccc(F)cc2)CC1 [NSC_159037] | 6.55 | 6.59 | 8.22
